The record followed here is ChEMBL document CHEMBL1201862, “PubChem BioAssay data set” (2004).

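Following 48 hours of exposure in 96-well plates, responses at five concentrations were used to interpolate endpoints linearly. GI50 is the concentration that inhibits growth by half.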 Active and inactive are the calls of the source. Cut-off read from the data, not from the text of the source: active = GI50 up to about 1.1 µM and inactive = higher.

Among the test systems are PC-3; MDA-N; M19-MEL; DLD-1; DMS-273; KM-20L2; HOP-18; DMS-114.
Holding throughout (assay): inhibition of tumour cell growth, NCI panel, 48 h

Consider `COc1ccc2c(c1)CCCc1c-2nc2ccccc2c1N`, for which the GI50 in the test on PC-3 and with MDA-N was 10.3 µM (inactive) in each case.
Turning to `C=C[C@H]1CN2CCc3c([nH]c4c([C@@H]5CCCN5C)c(O)ccc34)[C@@H]2C[C@@H]1C[C@H]1c2[nH]c3ccccc3c2CCN1C`, the GI50 was 1.41 µM (inactive) in the test with PC-3 and 0.49 µM (active) in the test on MDA-N.
The like results for `O=C(O)c1nn(-c2ccccc2)nc1-c1nn(-c2ccccc2)nc1C(=O)O` were, in that order, > 100 µM (inactive) and > 100 µM (inactive).
Regarding `CC1CC2=Nc3ccccc3NC(c3ccccc3)C2=C(O)O1` (configuration not stated), the GI50 in the test on M19-MEL, in the test on DLD-1, in the test on DMS-273, with KM-20L2, in the test on HOP-18 and in the test on DMS-114 was > 100 µM (inactive) throughout.
As for `CCN(CC)C(=S)N/N=C(\C)c1cccc(C)n1`, the GI50 in the test with PC-3 is < 0.01 µM (active); in the test with MDA-N, 0.474 µM (active).
Turning to `COc1ccccc1C1C(C(=O)O)=C(CO)Oc2cc3c(cc21)OCO3` (configuration not stated), the GI50 in the test with M19-MEL, in the test on DMS-273, in the test on KM-20L2, in the test with HOP-18 and in the test on DMS-114 was > 100 µM (inactive) in each case.
On to `C[N+](C)(N)c1nc(N)c(C#N)c(C#N)c1C#N`, for which the GI50 in the test on PC-3 and in the test with MDA-N was > 10 µM (inactive) each time.
In the case of `COC(=O)c1ccc(S)c(S(=O)(=O)Nc2nc(N)n[nH]2)c1`, the GI50 in the test with PC-3 and with MDA-N was > 100 µM (inactive) in each case.
Turning to `O=S(=O)(OI(O)CC(F)(F)F)C(F)(F)F`, the GI50 in the test with PC-3 is > 100 µM (inactive).
As to `COc1ccc(C(c2cc(OC)c(OC)c(OC)c2)N2C(=O)CCC2C(=O)O)cc1` (configuration not stated), the figures for the GI50 in the test on PC-3 and in the test with MDA-N were 46 µM (inactive) and 21.1 µM (inactive), respectively.
The like results for `N=C(N)NS(=O)(=O)c1ccc(Nc2c3ccccc3nc3c(C(=O)NCCO)cccc23)cc1` were, in that order, 0.21 µM (active) and 0.267 µM (active).
With `Brc1sc(Br)c2c1[C@H](Br)C[C@@H]2Br`, the GI50 with MDA-N was 38.1 µM (inactive).
In the case of `CC(=O)c1cc(I)c(O)c2ncccc12`, the figures for the GI50 in the test with PC-3 and in the test with MDA-N were 5.71 µM (inactive) and 5.02 µM (inactive), respectively.
In the same order, the values of `Cc1oc(N)c(S(=O)(=O)c2cc3ccccc3[n+]([O-])c2N)c1C` are > 100 µM (inactive) and > 100 µM (inactive).
Regarding `Cc1ccc(S(=O)(=O)N/N=C2/C3CCC(C3)C2c2ccccc2)cc1` (configuration not stated), the GI50 in the test on PC-3 and with MDA-N was > 100 µM (inactive) each time.
As for `Cc1ccc(C(=O)N/N=C(\N=N\c2cccc([N+](=O)[O-])c2)c2ccc(N(CCC#N)CCC#N)cc2C)cc1`, the values for the GI50 in the test with PC-3 and in the test with MDA-N were 23.8 µM (inactive) and 25.1 µM (inactive), respectively.
The like results for `C/C(CC1C2CCCC1C2)=N\NC(N)=O` (configuration not stated) were, in that order, > 100 µM (inactive) and > 100 µM (inactive).
The like results for `CN(C)CCCCN1c2ccccc2Sc2ccc(N=[N+]=[N-])cc21` were, in that order, 3.15 µM (inactive) and 1.82 µM (inactive).
In the same order, the values of `CCC(=O)ONC(=O)Cn1ccc([N+](=O)[O-])n1` are > 100 µM (inactive) and > 100 µM (inactive).
In the case of `NC(=O)CC(/N=C1\C(=O)OC(C(O)CO)\C1=N/C(CC(N)=O)C(=O)O)C(=O)O` (configuration not stated), the GI50 in the test with PC-3 and with MDA-N was > 100 µM (inactive) throughout.
Consider `O=C1NC(=O)/C(=C/c2ccc(S(=O)(=O)N/N=C/c3ccccc3)cc2)N1`, for which the GI50 with PC-3 and with MDA-N was > 100 µM (inactive) in each case.
With `O=C(NCCNCCCNC(=O)c1cc(-c2ccccc2)nc2ccccc12)c1cccc(OCc2ccccc2)c1OCc1ccccc1`, the GI50 is 1.67 µM (inactive) in the test on PC-3 and 1.66 µM (inactive) in the test on MDA-N.
`CN1C(=O)NC2(O)c3ccccc3C(=O)C12O` (configuration not stated): the GI50 in the test with M19-MEL, in the test on DLD-1, in the test with KM-20L2 and in the test on DMS-114 was > 100 µM (inactive) in each case.
Consider `CCOP(=O)(CCCC(O)CNc1nc(N)nc(Cl)c1/N=N/c1ccc(Cl)cc1)OCC` (configuration not stated), for which the GI50 in the test with PC-3 was 4.86 µM (inactive); in the test with MDA-N, 5.82 µM (inactive).
Consider `CC1(C)c2ccccc2C(C)(C)C(C(=O)Nc2ccccc2)C1C(=O)O` (configuration not stated), for which the GI50 in the test on M19-MEL was > 100 µM (inactive); in the test with DLD-1 it was > 100 µM (inactive); in the test with DMS-273 it was > 100 µM (inactive); with KM-20L2, > 100 µM (inactive); in the test on HOP-18, > 100 µM (inactive); in the test with DMS-114 it was 91.6 µM (inactive).
For the compound `Cc1cc(-n2c(/C=C/c3ccc(Cl)cc3)nc3cc(Cl)ccc3c2=O)on1`, the values for the GI50 in the test on PC-3 and in the test on MDA-N were > 50 µM (inactive) and 24.8 µM (inactive), respectively.
The like results for `CC1CN=C(N(C(=O)Nc2ccc(Cl)c(Cl)c2)c2ccccc2)S1` (configuration not stated) were, in that order, 37.8 µM (inactive) and 36 µM (inactive).
In the same order, the values of `Cc1c2c(n(CCc3ccccc3)c1C)N(C)N=C(C#N)S2(=O)=O` are > 100 µM (inactive) and > 100 µM (inactive).
In the same order, the values of `CC(=O)NC(C)(C)C1CC=C(C)CC1` (configuration not stated) are > 100 µM (inactive) and > 100 µM (inactive).
For the compound `COC1=CC(=O)c2ccccc2C1(CCC=C(C)C)C1=NC(C)(C)CO1` (configuration not stated), the GI50 is 48.2 µM (inactive) with M19-MEL; > 100 µM (inactive) with DLD-1; 72.4 µM (inactive) in the test on DMS-273; > 100 µM (inactive) in the test with KM-20L2; 43.6 µM (inactive) with HOP-18.
As for `CC1(C)N=C(C2CCCN2C(=O)OCc2ccccc2)OC1=O` (configuration not stated), the GI50 in the test with PC-3 and with MDA-N was > 100 µM (inactive) throughout.
Regarding `Cc1ccc2c(c1)/C(=N/Nc1ccccc1[N+](=O)[O-])C(=O)N2`, the GI50 in the test on PC-3 is 24.8 µM (inactive); with MDA-N it was 3.37 µM (inactive).
Consider `[N-]=[N+]=NCc1cccc(Nc2cc(=O)[nH]c(=O)[nH]2)c1`, for which the GI50 in the test with MDA-N was > 100 µM (inactive).
With `CCSc1ncnc2c(C3OC(CO)C(O)C3O)nsc12` (configuration not stated), the GI50 in the test on PC-3 and in the test on MDA-N was > 100 µM (inactive) in each case.
Consider `O=C(Cc1csc2[n+]1C(=O)/C(=C/c1ccc(Cl)cc1)S2)Nc1ccccc1`, for which the GI50 is 16.4 µM (inactive) with PC-3 and 30.4 µM (inactive) with MDA-N.
In the same order, the values of `Fc1ccccc1C1SCc2nc3cc4ccccc4cc3n21` (configuration not stated) are 78.3 µM (inactive) and 79.1 µM (inactive).
In the case of `COc1ccc2nc3cc(Cl)ccc3c(Sc3ccc([N+](=O)[O-])cc3C)c2c1`, the GI50 in the test with M19-MEL, with DLD-1, in the test with DMS-273, with KM-20L2, in the test on HOP-18 and in the test with DMS-114 was > 100 µM (inactive) in each case.
As for `O=C(O)C1C(Br)(c2ccccc2)C1(Br)c1ccccc1` (configuration not stated), in the test on PC-3, the GI50 is 36.5 µM (inactive).
For `Cn1nc(C(=O)N2CC(CCl)c3c2cc(N)c2ccccc32)cc1NC(=O)Nc1cc(C(=O)N2CC(CCl)c3c2cc(N)c2ccccc32)nn1C` (configuration not stated), the GI50 in the test with PC-3 was 0.165 µM (active); in the test on MDA-N, 0.157 µM (active).
With `CC1CCC2(CC1)NC1=C(CC(C)CC1)C1=C2CC(C)CC1` (configuration not stated), the GI50 in the test on PC-3 was 16.1 µM (inactive); in the test on MDA-N, 31.3 µM (inactive).
For `CC(=O)O[C@H]1[C@H](OC(=O)CC(C)(O)CC(=O)O)C[C@]2(C)C3=C(CCC2C1(C)C)[C@]1(C)CC[C@H]([C@H]2CC[C@H](C(C)(C)O)OC2O)[C@@]1(C)[C@@H](O)C3` (some centres not stated), the GI50 in the test on PC-3 was 18.3 µM (inactive); in the test with MDA-N, 18.1 µM (inactive).
For the compound `COc1ccc(NC(=O)CC(=O)n2nc(C)c(/N=N/c3ccccc3C(=O)O)c2C)cc1`, the GI50 with M19-MEL, in the test with DLD-1, with DMS-273, with KM-20L2 and in the test with DMS-114 was > 100 µM (inactive) in each case.
As to `C=C/C=C/NC(=O)OCc1ccccc1`, the GI50 in the test on M19-MEL, in the test on DLD-1, in the test on DMS-273, in the test on KM-20L2, with HOP-18 and in the test with DMS-114 was > 100 µM (inactive) throughout.
As to `CC(=O)NC1=C(NCC(C)(C)C)C(=O)c2ccccc2C1=O`, the GI50 was 21.1 µM (inactive) in the test on M19-MEL, 99.5 µM (inactive) in the test with DLD-1, > 100 µM (inactive) in the test on DMS-273 and 57.8 µM (inactive) in the test with KM-20L2.
On to `CC(C)=CCC/C(C)=C/CC/C(C)=C/CC/C(=C/CC/C(C)=C\CC/C(C)=C/CC/C(C)=C/CC/C(C)=C/Cc1cc(O)ccc1O)CO`, for which the results for the GI50 in the test with PC-3 and in the test on MDA-N were 4.2 µM (inactive) and 3.21 µM (inactive), respectively.
The like results for `CN1COCc2c1ccc1cc3ccc4c(c3nc21)COCN4S(C)(=O)=O` were, in that order, > 100 µM (inactive) and > 100 µM (inactive).
In the same order, the values of `COc1cc(/C=C2\CCC(C)C3=C2N=c2s/c(=C/c4ccc(Cl)cc4)c(=O)n2C3c2cc(OC)c(OC)c(OC)c2)cc(OC)c1OC` (configuration not stated) are > 100 µM (inactive) and > 100 µM (inactive).
In the same order, the values of `O=C(O)Cc1cccc2c(=O)c3cccc([N+](=O)[O-])c3[nH]c12` are > 100 µM (inactive) and > 100 µM (inactive).
Turning to `O=c1cccc2n1C[C@H]1CNC[C@H]2C1`, the GI50 in the test on PC-3 and with MDA-N was > 100 µM (inactive) in each case.
On to `CCCCN=C(OC1C=CCCC1)SC` (configuration not stated), for which the GI50 with PC-3 and in the test with MDA-N was > 100 µM (inactive) in each case.
As to `CC(C(=O)C(C)O[Si](c1ccccc1)(c1ccccc1)C(C)(C)C)=P(c1ccccc1)(c1ccccc1)c1ccccc1` (configuration not stated), the GI50 in the test on M19-MEL was 3.11 µM (inactive); in the test with DLD-1 it was 4.58 µM (inactive); in the test on KM-20L2, 4.13 µM (inactive); in the test with HOP-18, 3.05 µM (inactive); in the test on DMS-114, 2.39 µM (inactive).
As for `Cn1cnc([N+](=O)[O-])c1Sc1nc2cc([N+](=O)[O-])ccc2[nH]1`, the GI50 in the test with M19-MEL is 17.4 µM (inactive); in the test on DLD-1, 11.5 µM (inactive); in the test on DMS-273, 1.73 µM (inactive); in the test with KM-20L2 it was 24.8 µM (inactive); in the test with HOP-18 it was 45.8 µM (inactive).
Consider `CN(C)c1nc2sc3c(c2c(=O)o1)CCCC3`, for which the GI50 in the test with PC-3 is 34.4 µM (inactive); in the test with MDA-N, 38.2 µM (inactive).
